How the values were obtained:
[1] = Dry grinding simulation experiment (XRPD); assay type: physicochemical; settings: manually ground for 1, 3, and 5 minutes, mortar and pestle
Procedure: About 5 mg of crystalline form C was manually ground for 1, 3, and 5 minutes using a mortar and pestle. Potential changes in form and crystallinity were evaluated by XRPD.
The XRPD results of the dry grinding simulation experiments are shown in Fig. 11, where GSE1, GSE2, and GSE3 represent experiment IDs for grinding for 1 minute, 3 minutes, and 5 minutes, respectively.

[2] = Wet granulation simulation experiment (XRPD); assay type: physicochemical; settings: ground, dried 10 minutes
Procedure: Water or ethanol was added dropwise to about 10 mg of crystalline form C until it was sufficiently wetted. The wet sample was gently ground using a mortar and pestle. After the granulation, the sample was dried under ambient conditions for 10 minutes. Potential changes in form and crystallinity were evaluated by XRPD.
The XRPD results of the wet granulation simulation experiments are shown in Fig. 12, where GNSE1 and GNSE2 represent experiment IDs for water and ethanol, respectively.

Aβ plaques = assay: Bielschowsky silver staining of brain sections; assay type: in vivo, mice; settings: 1 mg/kg orally, cerebral cortex, vs vehicle control
Procedure: To evaluate the efficacy of crystalline form C of the present disclosure in inhibiting amyloid-beta protein accumulation, mouse proteomic profiling array analysis and Bielschowsky silver staining were performed. […]
Bielschowski silver staining (Bielschowski Silver Staining Kit, ab245877, abcam, Cambridge, UK) was performed according to the manufacturer's protocol. 40 µm-thick brain sections of APP/PS1 mice were incubated in a warm 20% silver nitrate solution at 40°C for 15 minutes, followed by four washes with distilled water and three rinses with water for 3 minutes each. The slides were incubated in an ammoniacal silver solution at 40°C for 10 minutes, and then placed in a developer solution (containing 8 drops of 20% formalin, 8 drops of citric acid, and 4 drops of nitric acid in 50 mL H2O) for a few seconds until the tissue sections turned yellow/brown. Subsequently, the slides were placed in aqueous ammonia for 30 seconds. The sections were washed three times with water for 2 minutes each and incubated in a 5% thiosulfate solution for 2 minutes. […]
(§1) Statistical analysis was performed using GraphPad Prism 9.5.0 software (San Diego, CA, USA). […] All data are expressed as mean ± SEM.

[3] = Hygroscopicity by dynamic vapor sorption (DVS); assay type: physicochemical
Procedure: Instrument model: SMS DVS Advantage Dynamic Vapor Sorption System Test method: A sample (10 to 15 mg) is taken and placed on a DVS sample pan, and measurement is performed. Detailed DVS parameters are as follows. Temperature: 25°C Equilibrium dm/dt = 0.002%/min: (minimum: 60 min, maximum: 240 min) Relative humidity (RH (%)) measurement gradient: 10% Relative Humidity (RH (%)) measurement gradient cycle: 40-0-95-0-40% The following description provides the criteria for determining hygroscopicity: [Table 6]
The moisture adsorption and desorption behavior of crystalline form C was investigated by the DVS test of Experimental Method 5. XRPD was performed to confirm any change in form after the DVS test.

IL-33 = assay: Mouse proteome profiling array analysis of somatosensory cortex homogenates; assay type: in vivo; settings: APP/PS1 mice, 1 mg/kg orally for 14 days, cerebral cortex, vs vehicle-treated control group
Procedure: (§2) To evaluate the efficacy of crystalline form C of the present disclosure in inhibiting amyloid-beta protein accumulation, mouse proteomic profiling array analysis and Bielschowsky silver staining were performed. 15-week-old APP/PS1 mice were used in the experiment, and crystalline form C of the present disclosure (1 mg/kg of BnH-015B) or a vehicle was administered orally.
(§3) Relative levels of mouse cytokines, chemokines, and growth factors were determined using a membrane-based antibody array kit (Proteome Profiler Mouse XL Cytokine Array Kit, ARY028 R&D Systems, Inc., Minneapolis, USA) which features 111 capture antibodies coated in duplicate on a nitrocellulose membrane. Homogenates of the somatosensory cortex of APP/PS1 mice were prepared and tested according to the manufacturer's instructions. The array was detected using an X-ray film (Super RX, Fujifilm, Tokyo, Japan), and the film was read using an Epson scanner (L655 series, Epson, Suwa, Japan), followed by image analysis using ImageJ with the Protein Array Analyzer Macro (National Institutes of Health, Bethesda, MD, USA). […]
as §1

OPN = assay: as above; assay type: in vivo; settings: APP/PS1 mice, 1 mg/kg orally for 14 days, cerebral cortex, vs vehicle-treated control group
Procedure: as §2, §3, §1

Classification of hygroscopicity ([3]; DVS, 25°C): non-hygroscopic | Weight change (%) in 1st adsorption ([3]; Relative humidity 0% at 25°C): 0% | Weight change (%) in 1st desorption ([3]; Relative humidity 0% at 25°C): 0% | Weight change (%) in 2nd adsorption ([3]; Relative humidity 0% at 25°C): 0% | Weight change (%) in 2nd desorption ([3]; Relative humidity 0% at 25°C): 0% | Weight change (%) in 1st adsorption ([3]; Relative humidity 10% at 25°C): 0% | Weight change (%) in 1st desorption ([3]; Relative humidity 10% at 25°C): 0% | Weight change (%) in 2nd adsorption ([3]; Relative humidity 10% at 25°C): 0% | Weight change (%) in 2nd desorption ([3]; Relative humidity 10% at 25°C): 0% | Weight change (%) in 1st adsorption ([3]; Relative humidity 20% at 25°C): 0% | Weight change (%) in 1st desorption ([3]; Relative humidity 20% at 25°C): 0% | Weight change (%) in 2nd adsorption ([3]; Relative humidity 20% at 25°C): 0% | Weight change (%) in 2nd desorption ([3]; Relative humidity 20% at 25°C): 0% | Weight change (%) in 1st adsorption ([3]; Relative humidity 30% at 25°C): 0% | Weight change (%) in 1st desorption ([3]; Relative humidity 30% at 25°C): 0% | Weight change (%) in 2nd adsorption ([3]; Relative humidity 30% at 25°C): 0% | Weight change (%) in 2nd desorption ([3]; Relative humidity 30% at 25°C): 0% | Weight change (%) in 1st adsorption ([3]; Relative humidity 40% at 25°C): 0% | Weight change (%) in 1st desorption ([3]; Relative humidity 40% at 25°C): 0% | Weight change (%) in 2nd adsorption ([3]; Relative humidity 40% at 25°C): 0% | Weight change (%) in 2nd desorption ([3]; Relative humidity 40% at 25°C): 0.1% | Weight change (%) in 1st adsorption ([3]; Relative humidity 50% at 25°C): 0.1% | Weight change (%) in 2nd desorption ([3]; Relative humidity 50% at 25°C): 0.1% | Weight change (%) in 1st adsorption ([3]; Relative humidity 60% at 25°C): 0.1% | Weight change (%) in 2nd desorption ([3]; Relative humidity 60% at 25°C): 0.1% | Weight change (%) in 1st adsorption ([3]; Relative humidity 70% at 25°C): 0.1% | Weight change (%) in 2nd desorption ([3]; Relative humidity 70% at 25°C): 0.1% | Weight change (%) in 1st adsorption ([3]; Relative humidity 80% at 25°C): 0.1% | Weight change (%) in 2nd desorption ([3]; Relative humidity 80% at 25°C): 0.1% | Weight change (%) in 1st adsorption ([3]; Relative humidity 90% at 25°C): 0.1% | Weight change (%) in 2nd desorption ([3]; Relative humidity 90% at 25°C): 0.1% | Weight change (%) in 1st adsorption ([3]; Relative humidity 95% at 25°C): 0.1% | Weight change (%) in 2nd desorption ([3]; Relative humidity 95% at 25°C): 0.1% | crystalline form after the DVS test (XRPD) ([3]; sample obtained after the DVS test): still exhibits crystalline pattern C | moisture uptake ([3]; up to 95% RH, 25°C): less than 0.2%
Compound: C[C@@H]1CC[C@H](C(=O)O)CN1C(=O)Cc1ccc(F)cc1Cl [Crystalline form C, (3S,6R)-1-(2-(2-chloro-4-fluorophenyl)acetyl)-6-methylpiperidine-3-carboxylic acid]
change in form and crystallinity on grinding [1]: no change in form, but its crystallinity decreased significantly | change in form and crystallinity on granulation with ethanol ([2]; wetted with ethanol): no change in form, but its crystallinity decreased significantly | change in form and crystallinity on granulation with water ([2]; wetted with water): without any change in form or apparent decrease in crystallinity | Aβ plaques (percent area) (Aβ plaques): reduced Aβ plaques | expression level of IL-33 (IL-33): significantly increased | OPN expression (OPN): suppressed
